Molecules are shown by their SMILES. The source made the active and inactive calls. The rule behind the calls is not given here. A value given as a limit tells only on which side of the number the result lay.

One may read the IC50 as the concentration that inhibits the measured activity by half.

In the assay the target is Perilipin-1 (Homo sapiens) + 1-acylglycerol-3-phosphate O-acyltransferase ABHD5 (Homo sapiens) (UniProt O60240+Q8WTS1). Description: PubChem AID 652125. The note with it: biochemical ABHD5-PLIN1 interaction, luminescence.
As to `O=C(Nc1ccc2ccccc2c1)c1nc(S(=O)(=O)Cc2ccccc2)ncc1Cl`, the IC50 is 2.2 µM.

`CN1C(=O)c2ccccc2Sc2ccc(NC(=O)NCCCc3ccccc3)cc21`: the IC50 is 1.73 µM.

For the compound `CCCCCNC(=O)Nc1ccc2c(c1)Sc1ccccc1C(=O)N2C`, the IC50 is > 39.8 µM (inactive).

Consider `O=C(Cc1ccc2c(c1)CCCC2)N1CCN(S(=O)(=O)c2ccc3c(c2)OCCO3)CC1`, for which the IC50 entry was “inactive”.

As to `NS(=O)(=O)c1ccc(NC(=O)c2nc(S(=O)(=O)Cc3ccccc3)ncc2Cl)cc1`, the IC50 was 4.22 µM.

Take `COc1ccc(CCNC(=O)c2nc(S(=O)(=O)Cc3ccc(F)cc3)ncc2Cl)cc1OC`: the IC50 was 2.5 µM.

`O=C(CCc1c[nH]c2ccccc12)N1CCN(S(=O)(=O)c2ccc3c(c2)OCCO3)CC1`: the IC50 was > 39.8 µM (inactive).

Consider `COc1ccc(OCC(=O)Nc2ccc3c(c2)N(C(C)C)C(=O)c2ccccc2O3)cc1`, for which the IC50 was > 39.8 µM (inactive).

For `CC(C)N1C(=O)c2ccccc2Oc2ccc(NC(=O)c3ccccc3)cc21`, the IC50 is > 39.8 µM (inactive).

For the compound `CN(C)CCCN(C(=O)C1CCCCC1)c1nc2cc(Cl)ccc2s1`, the IC50 was > 39.8 µM (inactive).

As for `CN(C)CCCN(C(=O)C1CCCCC1)c1nc2cc(Br)ccc2s1`, the IC50 result was “inactive”.

For `CN1C(=O)c2ccccc2Sc2ccc(NC(=O)NCCc3ccccc3)cc21`, the IC50 is 3.57 µM.

In the case of `COc1ccc(CC(=O)N2CCN(S(=O)(=O)c3ccc4c(c3)OCCCO4)CC2)cc1`, the IC50 was > 39.8 µM (inactive).

Consider `Cc1ccc(CS(=O)(=O)c2ncc(Cl)c(C(=O)Nc3cccc(C(F)(F)F)c3)n2)cc1`, for which the IC50 was 2.11 µM.

In the case of `Cc1ccc(CS(=O)(=O)c2ncc(Cl)c(C(=O)Nc3cccc4ccccc34)n2)cc1`, the IC50 was 2.29 µM.

Consider `O=C(CCn1cnc2ccccc21)N1CCN(S(=O)(=O)c2ccc3c(c2)OCCO3)CC1`, for which the IC50 is > 39.8 µM (inactive).

As for `CN(C(=O)c1nc(S(C)(=O)=O)ncc1Cl)c1ccccc1`, the IC50 is 3.43 µM.

As for `O=C(Cc1cccc(F)c1)N1CCN(S(=O)(=O)c2ccc3c(c2)OCCO3)CC1`, the IC50 was > 39.8 µM (inactive).

In the case of `CCCCCCCNC(=O)Nc1ccc2c(c1)Sc1ccccc1C(=O)N2C`, the IC50 result was “inactive”.

For `CCCS(=O)(=O)c1ccc(Cl)c(C(=O)Nc2ccc(C(=O)OCC)cc2)c1`, the IC50 was 5.32 µM.

In the case of `CCS(=O)(=O)c1ncc(Cl)c(C(=O)Nc2ccc(C)cc2)n1`, the IC50 is 3.53 µM.

As to `CCCC(=O)Nc1ccc2c(c1)C(=O)N(C)c1cc(C)ccc1O2`, the IC50 was > 39.8 µM (inactive).

Take `Cc1ccc(NC(=O)c2nc(S(C)(=O)=O)ncc2Cl)cc1`: the 50% inhibitory concentration (IC50) is 3.5 µM.

On to `CC(NC(=O)CN1CCN(S(=O)(=O)c2ccc3c(c2)OCCCO3)CC1)c1cc2ccccc2o1` (configuration not stated), for which the IC50 was > 39.8 µM (inactive).

On to `Cc1ccc2c(CC(=O)N3CCN(S(=O)(=O)c4ccc5c(c4)OCCCO5)CC3)coc2c1C`, for which the IC50 was 3.74 µM.

Turning to `CCCCCCNC(=O)Nc1ccc2c(c1)Sc1ccccc1C(=O)N2C`, the IC50 is > 39.8 µM (inactive).

Turning to `Cc1ccc2cc(CC(=O)N3CCN(S(=O)(=O)c4ccc5c(c4)OCCO5)CC3)oc2c1`, the IC50 result is “inactive”.

Regarding `CN1C(=O)c2ccccc2Sc2ccc(NC(=O)NCCc3cccs3)cc21`, the IC50 is 4.31 µM.

As to `CN1C(=O)c2ccccc2Oc2ccc(NC(=O)c3cccs3)cc21`, the IC50 is > 39.8 µM (inactive).

Consider `O=C(C1COc2ccccc2O1)N1CCN(S(=O)(=O)c2ccc3c(c2)OCCO3)CC1` (configuration not stated), for which the IC50 is > 39.8 µM (inactive).

Consider `CCCS(=O)(=O)c1ncc(Cl)c(C(=O)Nc2ccc(C(=O)OC)cc2)n1`, for which the IC50 is 5.42 µM.

As to `CN(C)CCCN(C(=O)Cc1ccc(F)cc1)c1nc2ccc(Cl)cc2s1`, the IC50 entry was “inactive”.

For `Cc1ccc(CS(=O)(=O)c2ncc(Cl)c(C(=O)N3CCN(C)CC3)n2)cc1`, the IC50 was 5.75 µM.

For the compound `CN(C)CCCN(C(=O)CCc1ccccc1)c1nc2ccc(Cl)cc2s1`, the IC50 entry is “inactive”.

Consider `CCc1ccc2c(CC(=O)N3CCN(S(=O)(=O)c4ccc5c(c4)OCCO5)CC3)coc2c1`, for which the IC50 is 2.54 µM.

For the compound `CCCC(=O)N(CCCN1CCOCC1)c1nc2ccc(Cl)cc2s1`, the IC50 was > 39.8 µM (inactive).

Regarding `Cc1ccc(CS(=O)(=O)c2ncc(Cl)c(C(=O)Nc3nnc(C(C)C)s3)n2)cc1`, the IC50 was > 39.8 µM (inactive).

Take `O=C(c1nc(S(=O)(=O)Cc2ccccc2)ncc1Cl)N(Cc1ccccc1)Cc1ccco1`: the IC50 is 1.41 µM.

`CCCNC(=O)Nc1ccc2c(c1)N(CC)C(=O)c1ccccc1S2`: the IC50 entry was “inactive”.

As to `CS(=O)(=O)c1ncc(Cl)c(C(=O)Nc2ccc(C(F)(F)F)cc2)n1`, the IC50 was 1.42 µM.

In the case of `CN(C)CCCN(C(=O)c1cc2ccccc2oc1=O)c1nc2ccc(Cl)cc2s1`, the IC50 result is “inactive”.

With `O=C(CCc1nc2ccccc2s1)N1CCN(S(=O)(=O)c2ccc3c(c2)OCCO3)CC1`, the IC50 entry was “inactive”.

With `Cc1ccc(CS(=O)(=O)c2ncc(Cl)c(C(=O)NCc3ccc4c(c3)OCO4)n2)cc1`, the IC50 was 3.2 µM.

Turning to `CCCC(=O)Nc1ccc2c(c1)C(=O)N(C)c1ccccc1O2`, the IC50 was > 39.8 µM (inactive).

`CN1C(=O)c2ccccc2Oc2ccc(NC(=O)c3cc4ccccc4[nH]3)cc21`: the IC50 is > 39.8 µM (inactive).

Take `COc1ccc(CC(=O)N2CCCN(S(=O)(=O)c3ccc(C)cc3)CC2)cc1OC`: the IC50 is > 39.8 µM (inactive).

For `CCS(=O)(=O)c1ncc(Cl)c(C(=O)Nc2ccc(S(N)(=O)=O)cc2)n1`, the IC50 is 6.72 µM.

The values are drawn from PubChem BioAssay AID652125 (The Scripps Research Institute Molecular Screening Center, 2013).
